According to publication PMC6177136, “Hybrid topoisomerase I and HDAC inhibitors as dual action anticancer agents” (PLoS ONE, 2018):

Legend:
NCI-H460 = assay: Cytotoxicity assay (SRB, 72 h) NCI-H460; assay type: cell-based, Human; conditions: Homo sapiens, NCI-H460; 72 h, SRB assay; read-out: IC50 ± SD NCI-H460
Capan 1 = assay: Cytotoxicity assay (SRB, 72 h) Capan 1; assay type: cell-based, Human; conditions: Homo sapiens, CAPAN-1, read-out: IC50 ± SD Capan 1
HeLa = assay: Cytotoxicity assay (SRB, 72 h) HeLa; assay type: cell-based, Human; conditions: Homo sapiens, HeLa, read-out: IC50 ± SD HeLa
DU145 = assay: Cytotoxicity assay (SRB, 72 h) DU145; assay type: cell-based, Human; conditions: Homo sapiens, DU-145, read-out: IC50 ± SD DU145
A2780-Dx = assay: Cytotoxicity assay (SRB, 72 h) A2780-Dx; assay type: cell-based, Human
U-2932 = assay: Cytotoxicity assay (MTT, 72 h) U-2932; assay type: cell-based, Human; conditions: Homo sapiens, U2932, read-out: IC50 ± SD U-2932
L-428 = assay: Cytotoxicity assay (MTT, 72 h) L-428; assay type: cell-based, Human; conditions: Homo sapiens, L-428; 72 h, MTT assay; read-out: IC50 ± SD L-428
Procedure: (§1) Human tumor cells were seeded in 96-well cell culture plastic plates, allowed to attach, and exposed to scalar concentrations of the test compounds.

DG-75 = assay: Cytotoxicity assay (MTT, 72 h) DG-75; assay type: cell-based, Human; conditions: Homo sapiens, DG-75; 72 h, MTT assay; read-out: IC50 ± SD DG-75
MV4-11 = assay: Cytotoxicity assay (MTT, 72 h) MV4-11; assay type: cell-based; conditions: Homo sapiens, read-out: IC50 ± SD MV4-11
Jurkat-cp = assay: Cytotoxicity assay (MTT, 72 h) Jurkat-cp; assay type: cell-based; conditions: Homo sapiens, read-out: IC50 ± SD Jurkat-cp
U937 = assay: Cytotoxicity assay (MTT, 72 h) U937; assay type: cell-based; conditions: Homo sapiens, U-937, read-out: IC50 ± SD U937
RAMOS = assay: Cytotoxicity assay (MTT, 72 h) RAMOS; assay type: cell-based; conditions: Homo sapiens, read-out: IC50 ± SD RAMOS
REC-1 = assay: Cytotoxicity assay (MTT, 72 h) REC-1; assay type: cell-based; conditions: Homo sapiens, Rec1, read-out: IC50 ± SD REC-1
Z-138 = assay: Cytotoxicity assay (MTT, 72 h) Z-138; assay type: cell-based; conditions: Homo sapiens, read-out: IC50 ± SD Z-138
RPMI-8226 = assay: Cytotoxicity assay (MTT, 72 h) RPMI-8226; assay type: cell-based; conditions: Homo sapiens, read-out: IC50 ± SD RPMI-8226
Procedure: as §1

H929 = assay: Cytotoxicity assay (MTT, 72 h) H929; assay type: cell-based; conditions: Homo sapiens, NCI-H929, read-out: IC50 ± SD H929
MM404 = assay: Cytotoxicity assay, primary mesothelioma MM404; assay type: cell-based, Human; conditions: Homo sapiens; epithelioid, 72 h, SBR assay; read-out: IC50 ± SD MM404
MM473 = assay: Cytotoxicity assay, primary mesothelioma MM473; assay type: cell-based, Human; conditions: Homo sapiens, MM473; epithelioid, 72 h, SBR assay; read-out: IC50 ± SD MM473
MM481 = assay: Cytotoxicity assay, primary mesothelioma MM481; assay type: cell-based, Human; conditions: Homo sapiens; epithelioid, 72 h, SBR assay; read-out: IC50 ± SD MM481
MM491 = assay: Cytotoxicity assay, primary mesothelioma MM491; assay type: cell-based, Human; conditions: Homo sapiens; biphasic, 72 h, SBR assay; read-out: IC50 ± SD MM491
MM432 = assay: Cytotoxicity assay, primary mesothelioma MM432; assay type: cell-based, Human; conditions: Homo sapiens; sarcomatoid, 72 h, SBR assay; read-out: IC50 ± SD MM432
[1] = system: primary malignant pleural mesothelioma (MPM) cell lines; assay: Primary malignant pleural mesothelioma (MPM) cell lines (summary); assay type: cell-based; conditions: Homo sapiens, span over the cell line panel, 72 h, read-out: IC50 across primary mesothelioma cell lines (Table 7)
Acetylated Histone H4 = assay: Western blot, acetylation of histone H4 in NCI-H460 cells; assay type: cell-based, Human; conditions: 24 h; SN38 0.05 μM, SAHA 5 μM, 3b and 3d 0.125–0.2–0.5 μM
Procedure: (§2) The supernatant, containing the total proteins extracts, were transferred in new vials. The protein concentration was measured by Bradford Protein Assay. Equal amounts of proteins for each sample were then resolved by SDS-PAGE and loaded on 10–12% polyacrilamide gels. The proteins were then transferred on nitrocellulose membranes. Molecular weights were estimated based upon the relative migration with molecular weight protein markers.
(§3) The non-specific binding was blocked by incubation of membranes in TBS-tween (25 mM Tris, 150 mM NaCl, 0.1% Tween 20) with 5% nonfat dry milk (BIORAD, Milan) for 60 minutes. Subsequently, the membrane was incubated overnight with primary antibodies: anti-Histone H4 (Millipore, 1:500), anti-acetyl-H4 (Santa Cruz, 1:1000) anti-p21 (Santa Cruz, 1:1000), anti-acetyl-tubulin (abcam, 1:1000), anti-α-tubulin (Sigma, 1:5000), anti β-actin (Sigma, 1:5000) and anti-Topoisomerase 1 (Santa Cruz, 1:500). After three washes with TBST blots were incubated with HRP-coniugated secondary anti-mouse and anti-rabbit (Santa Cruz, 1:5000) 1 hour at room temperature. After three washes with TBST the blots were developed with ECL substrate (GE Healthcare) and chemiluminescence detected by ChemiDoc Imaging System (Biorad). The optical density of the protein bands detected by western blotting was normalized on α -tubulin levels and analyzed by ChemiDoc software (Biorad). […]

Acetylated Tubulin = assay: Western blot, acetylation of tubulin in NCI-H460 cells; assay type: cell-based, Human; conditions: 24 h; SN38 0.05 μM, SAHA 5 μM, 3b and 3d 0.125–0.2–0.5 μM
Procedure: as §2, §3

Top1 = assay: Western blot, Top1 expression in NCI-H460 cells; assay type: cell-based, Human; conditions: 24 h; SAHA 5 μM, SN38 0.05 μM, 3d 0.125–0.2–0.5 μM
Procedure: as §2, §3

H2A.X = assay: Western blot, H2A.X induction in NCI-H460 cells; assay type: cell-based, Human; conditions: 24 h; SAHA 5 μM, SN38 0.05 μM, 3d 0.125–0.2–0.5 μM
Procedure: as §2
(§4) The non-specific binding was blocked by incubation of membranes in TBS-tween (25 mM Tris, 150 mM NaCl, 0.1% Tween 20) with 5% nonfat dry milk (BIORAD, Milan) for 60 minutes. Subsequently, the membrane was incubated overnight with primary antibodies: anti-Histone H4 (Millipore, 1:500), anti-acetyl-H4 (Santa Cruz, 1:1000) anti-p21 (Santa Cruz, 1:1000), anti-acetyl-tubulin (abcam, 1:1000), anti-α-tubulin (Sigma, 1:5000), anti β-actin (Sigma, 1:5000) and anti-Topoisomerase 1 (Santa Cruz, 1:500). After three washes with TBST blots were incubated with HRP-coniugated secondary anti-mouse and anti-rabbit (Santa Cruz, 1:5000) 1 hour at room temperature. After three washes with TBST the blots were developed with ECL substrate (GE Healthcare) and chemiluminescence detected by ChemiDoc Imaging System (Biorad). The optical density of the protein bands detected by western blotting was normalized on α -tubulin levels and analyzed by ChemiDoc software (Biorad).
(§5) Cells were lysed in 0.5% NP-40 and 40 μg of total proteins were loaded on NuPAGE 4–12% (Invitrogen), transferred to a nitrocellulose paper and probed with specific antibodies.

CycD1 = assay: Western blot, CycD1 in NCI-H460 cells; assay type: cell-based, Human; conditions: 24 h; SAHA 5 μM, SN38 0.05 μM, 3d 0.125–0.2–0.5 μM
Procedure: as §2, §4, §5

## CC[C@@]1(O)C(=O)OCc2c1cc1n(c2=O)Cc2c-1nc1ccc(O)cc1c2C=NOCCCCCC(=O)NO [Compound 3d, 6-(10-hydroxycamptothecin-7-ylmethyleneaminooxy)-hexanoic acid hydroxyamide]
NCI-H460
  IC50: 270 ± 20 nM
Capan 1
  IC50: 35 ± 2 nM
HeLa
  IC50: 180 ± 50 nM
DU145
  IC50: 70 ± 3 nM
A2780-Dx; A2780-Dx versus A2780
  RI (Resistance Index): 6.6
A2780-Dx; Homo sapiens, A2780/DX, 72 h, SRB assay, multidrug-resistant ovarian carcinoma, read-out: IC50 ± SD A2780-Dx
  IC50: 1800 ± 400 nM
U-2932
  IC50: 44 ± 10 nM
L-428
  IC50: 430 ± 70 nM
DG-75
  IC50: 1900 ± 200 nM
MV4-11
  IC50: 2730 ± 300 nM
Jurkat-cp
  IC50: 230 ± 50 nM
U937
  IC50: 180 ± 50 nM
RAMOS
  IC50: 990 ± 100 nM
REC-1
  IC50: 180 ± 40 nM
Z-138
  IC50: 6 ± 1 nM
RPMI-8226
  IC50: 4100 ± 1400 nM
H929
  IC50: 1100 ± 400 nM
MM404
  IC50: 1400 ± 300 nM
MM473
  IC50: 2100 ± 500 nM
MM481
  IC50: 11700 ± 1200 nM
MM491
  IC50: 870 ± 300 nM
MM432
  IC50: 160 ± 30 nM
[1]
  IC50: 50 to 11000 nM
Acetylated Histone H4
  accumulation of acetylated histone H4: H4 and tubulin acetylation in a dose dependent manner
Acetylated Tubulin
  accumulation of acetylated tubulin: H4 and tubulin acetylation in a dose dependent manner
Top1
  expression of Top1: drastically reduced the expression of Top1
H2A.X
  H2A.X induction (DNA damage): DNA damage at a dose corresponding to its IC80, confirmed by H2A.X induction
CycD1
  CycD1 regulation: didn’t show any effect
